Several values for one entry are separate records, joined by “and”; a condition that tells them apart may be missing. Identical values can stand only once.
How the values were obtained:
Assay type in all cases: cell-based, human
KB cells [1] = test: MTT assay, phosphatase-responsive liposomes; conditions: free DOX, ALP status not stated
Description: In the study of the phosphatase-responsive liposomes, KB cells (2×10^4 cells per well) were seeded on a 96 well plate in DMEM with 10% FBS at 37° C. for 20 hours. Then, the medium was replaced by the MEM medium (without FBS) containing DOX liposome, 3-MDL, 4-MDL, 5-MDL, 6-MDL, 7-MDL or free DOX, with or without ALP (50 U/ml), and then incubated at 37° C. for 20 hours. The medium was further replaced to MEM with 10% FBS for another 20 hour incubation at 37° C. 20 μl of MTT stock solution (5 mg/ml in PBS) was added to each well incubated at 37° C. for 2 hours, then removed 170 μl of culture medium followed by the addition of 200 μl of DMSO to each well to dissolve the purple formazan product at 37° C. on a 120 rpm reciprocal shaker for 10 minutes. The absorbance of the formazan product in DMSO solution at 540 nm was measured by plate reader to estimate cellular viability.

KB cells [2] = test: MTT assay, photo-responsive liposomes; conditions: DOX apparent concentration, 40 hours incubation
Description: Then, the medium was replaced by the MEM medium (without FBS) containing free DOX, or the MEM medium (without FBS) containing DDL or MDL, in the presence or absence of light irradiation (5 mW/cm^2, 4 minutes), and then incubated at 37° C. for additional 20 hours. The medium was further replaced to MEM with 10% FBS for another 20 hours incubation at 37° C. 20 μl of MTT stock solution (5 mg/ml in PBS) was added to each well incubated at 37° C. for 2 hours, then removed 170 μl of culture medium followed by the addition of 200 μl of DMSO to each well to dissolve the purple formazan product at 37° C. on a 120 rpm reciprocal shaker for 10 minutes. The absorbance of the formazan product in DMSO solution at 540 nm was measured by plate reader so as to estimate cellular viability.

KB cells [3] = test: Endogenous ALP-induced liposomal DOX release by flow cytometer; conditions: 25 μM, 20 hours, data not shown
Description: The cell solution (100 μl) were diluted to 1 ml PBS for flow cytometry analysis.

IC50 (KB cells [1]): 3000 nM
IC50 (KB cells [2]; UV (irradiated 4 minutes)): 3000 nM and ~3000 nM
IC50 (KB cells [2]; dark (non-irradiated)): 700 nM and ~700 nM
SMILES: COc1cccc2c1C(=O)c1c(O)c3c(c(O)c1C2=O)C[C@@](O)(C(=O)CO)C[C@@H]3O[C@H]1C[C@H](N)[C@H](O)[C@H](C)O1 [DOX, doxorubicin]
DOX uptake (cellular DOX fluorescence) (KB cells [3]): 100%
